Measured values as given in PMC2907371, “Antiviral biflavonoids from Radix Wikstroemiae (Liaogewanggen)” (Chinese Medicine, 2010).

Legend:
HIV-1 = system: HIV-1; design: method as in PMID 10985087; settings: cited from earlier work
[1] = Cytotoxicity assay (MTT method); assay type: cell-based; settings: human, concentration with half maximal inhibition on growth and survival of HEp-2 cells, mean (SD), n = 3
Procedure: (§1) Human larynx epidermoid carcinoma cell line (HEp-2, CCL-23) and RSV (long strain, VR-26) were purchased from the American Type Culture Collection (ATCC, USA). The cells were grown in Eagle's minimum essential medium (EMEM) (Gibco, USA) supplemented with 10% fetal bovine serum (FBS) (Gibco, USA), 25 μg/ml gentamicin (Sigma, USA) and […] L-glutamine (Sigma, USA) (growth medium). Virus-infected cells were maintained in EMEM with 1% FBS, 25 μg/ml gentamicin and […] L-glutamine (maintenance medium). All the cells were cultured at 37°C in a humidified atmosphere supplied with 5% CO2. Virus titers were determined by the 50% tissue culture infective dose (TCID50) method.
Cell viability was tested by the 3-(4,5-dimethylthiazol-2-yl)-2,5-diphenyl tetrazolium bromide (MTT) method as described in previous study. Briefly, 100 μl of two-fold diluted samples were added to a 96-well plate containing confluent cell monolayer in triplicates while the dilution medium without the sample was the control. After 72 hours of incubation, 12 μl of the MTT solution (5 mg/ml in phosphate buffered saline) was added to each well. The trays were further incubated for four hours for the formation of blue formazan. After the supernatant was removed, the blue formazan was solubilized in 100 μl DMSO and the optical density (OD) was measured at 570 nm with a microplate reader.

RSV (long strain, VR-26) = assay: CPE reduction assay, in vitro antiviral activity against RSV; assay type: cell-based, respiratory syncytial virus; settings: for anti-RSV activity (in words): in vitro; for IC50: human respiratory syncytial virus, concentration that reduced 50% of CPE in respect to virus control, RSV in HEp-2 cells, mean (SD), n = 3; for SI: ratio of CC50 to IC50
Procedure: as §1
CPE reduction assay was adopted for screening the in vitro antiviral activity as described in the previous study. Briefly, 0.1 ml of 100 TCID50 virus suspension and serial two-fold dilutions of the tested samples were added simultaneously to confluent cell monolayers in a 96-well plate. Virus suspension and maintenance medium without samples were added as the virus control and cell control, respectively. The plates were incubated at 37°C in a humidified CO2 atmosphere for 3-5 days. The virus-induced CPE was scored against the virus control under a light microscope. Ribavirin (Sigma, USA) was used as positive control in this experiment.

IC50 (RSV (long strain, VR-26)) [µM]	SMILES	activity against HIV-1 in vitro (in words) (HIV-1)	CC50 at 72 h [1] [µM]	anti-RSV activity (in words) (RSV (long strain, VR-26); CPE reduction assay)	anti-RSV activity (in words) (RSV (long strain, VR-26); CPE reduction assay, listed as neochamaejasmin B)	IC50 (symbol) (RSV (long strain, VR-26); CPE reduction assay, highest concentration tested = maximal non-cytotoxic concentration)	SI (RSV (long strain, VR-26))
	COc1cc(C[C@@H]2COC(=O)[C@@]2(O)Cc2ccc(O)c(OC)c2)ccc1O [(+)-nortrachelogenin]	moderately active					
	O=C1c2c(O)cc(O)cc2O[C@H](c2ccc(O)cc2)[C@H]1[C@@H]1C(=O)c2c(O)cc(O)cc2O[C@@H]1c1ccc(O)cc1 [Compound I, neochamaejasmin B]		29.9	did not show anti-RSV effect	did not	-	
9.6	O=C1C=C2O[C@@H](c3ccc(O)cc3)[C@]3(O)C(=O)c4c(O)cc(O)cc4O[C@]23C2=C1C[C@H](O)[C@@H](c1ccc(O)cc1)O2 [Compound II, genkwanol B]		106	potent anti-RSV activity			11.0
6.6	O=C1C=C2O[C@H](c3ccc(O)cc3)[C@@]3(O)C(=O)c4c(O)cc(O)cc4O[C@@]23C2=C1C[C@H](O)[C@@H](c1ccc(O)cc1)O2 [Compound III, genkwanol C]		145	potent anti-RSV activity			21.9
10.2	O=C1C=C2O[C@H](c3ccc(O)cc3)[C@@]3(O)C(=O)c4c(O)cc(O)cc4O[C@@]23C2=C1C[C@@H](O)[C@@H](c1ccc(O)cc1)O2 [Compound IV, stelleranol]		162	potent anti-RSV activity			15.8
11.9	NC(=O)c1ncn([C@@H]2O[C@H](CO)[C@@H](O)[C@H]2O)n1 [Ribavirin, reference compound]		256				21.6
	O=C(c1c(O)cc(O)cc1O)c1c(-c2ccc(O)cc2)oc2cc(O)c3c(c12)O[C@H](c1ccc(O)cc1)[C@@H](O)C3 [daphnodorin B]	moderately active					
	O=C1c2c(O)cc(O)cc2O[C@@]12c1c(cc(O)c3c1O[C@H](c1ccc(O)cc1)[C@@H](O)C3)O[C@@H]2c1ccc(O)cc1 [genkwanol A]	moderately active					
	O=c1c(-c2c(O)cc(O)c3c2O[C@H](c2ccc(O)cc2)[C@@H](O)C3)c(-c2ccc(O)cc2)oc2cc(O)cc(O)c12 [wikstrol B]	moderately active					
